Laboratory results reported in patent publication US4720495A, “Benzo[ij]quinolizine-2-carboxylic acids useful for treating bacterial infection” (priority 1985, dated 1988).
≈ marks a conversion by molar mass, not a printed value.

What was measured:
[1] = enteral absorbability, serum concentration after oral administration to mice; assay type: in vivo; conditions: mouse, 50 mg/kg orally, fasted male ICR mice; for concentration at 0.5 h: 30 min.
Protocol: Using male ICR mice fasted overnight (weighing 20±1 g), the enteral absorbability of some typical examples of the present compounds [I] was tested. This test was carried out by administering 50 mg/kg of each test compound orally to mice and determining its serum concentration 30 minutes, 1 hour, 2 hours and 4 hours after administration. Five mice were used for each test point. At each test point, whole blood was collected from the mice by cardiac puncture and used to prepare serum samples. Concentrations of the test compounds in serum samples were determined by the paper disc method using Escherichia coli CI-304 as the test microorganism.
For purposes of comparison, the enteral absorbability of ofloxacin and OPC-7241 was tested in the same manner as described above and the results thus obtained are also shown in Table 2.

[2] = system: Escherichia coli CI-304; assay: therapeutic effect on experimentally induced infection in mice; assay type: in vivo, Escherichia coli CI-304 in male ddY strain mice; conditions: CI304, po, 168 h, orally, one hour after inoculation, survival after 7 days
Protocol: Using male ddY strain mice infected with Escherichia coli CI-304 (in groups of five; weighing 20±1 g), the therapeutic effect of some typical examples of the present compounds [I] was tested. The therapeutic effect was evaluated by administering each test compound orally to infected mice and calculating ED50 from the number of mice surviving after the lapse of 7 days. Infected mice were prepared by suspending cells of the aforesaid Escherichia coli strain in a 5% mucin solution and injecting this suspension into the peritoneal cavity of mice. The dose of the bacterial cells was ten times the minimal lethal dose which had previously been determined by a preliminary test. One hour after inoculation of the bacterial cells, each test compound was administered orally to the mice.
For purposes of comparison, ofloxacin and OPC-7241 were tested in the same manner as described above and the results thus obtained are also shown in Table 3.

[3] = system: Escherichia coli NIHJ JC-2; assay: minimal inhibitory concentration, in vitro antibacterial activity; assay type: cell-based; conditions: NIHJJC2, 37° C., 20 hours
Protocol: (§1) The in vitro antibacterial activities of typical examples of the present compounds [I] were evaluated in terms of the minimal inhibitory concentration defined as the lowest concentration of the compound preventing the bacterial growth. The Gram-positive bacteria used as test microorganisms included Bacillus subtilis, Staphylococcus aureus and Streptococcus faecalis, and the Gram-negative bacteria used as test microorganisms included Escherichia coli, Enterobacter cloacae, Klebsiella pneumoniae, Proteus vulgaris, Pseudomonas aeruginosa, Serratia marcescens and Salmonella enteritidis. The minimal inhibitory concentration (cultured at 37° C. for 20 hours) was determined according to the standard method prescribed by the Japan Society of Chemotherapy (CHEMOTHERAPY, Vol. 29, No. 1, p. 76, 1981). The following compounds were used as typical examples of the present compounds [I]. At the end of the chemical name of each compound, its tentative designation is given in Parentheses.
(§2) For purposes of comparison, the in vitro antibacterial activities of ofloxacin, OPC-7241 and compound α were evaluated according to the same method as described above and the test results thus obtained are also shown in Table 1.

[4] = system: Escherichia coli CI-304; assay: as above; assay type: cell-based; conditions: CI304, 37° C., 20 hours
Protocol: as §1, §2

[5] = system: Enterobacter cloacae 963; assay: as above; assay type: cell-based; conditions: 37° C., 20 hours
Protocol: as §1, §2

[6] = system: Pseudomonas aeruginosa NCTC 10490; assay: as above; assay type: cell-based; conditions: NCTC10490, 37° C., 20 hours
Protocol: as §1, §2

[7] = system: Serratia marcescens IAM 1184; assay: as above; assay type: cell-based; conditions: IAM1184, 37° C., 20 hours
Protocol: as §1, §2

[8] = system: Staphylococcus aureus FDA 209P JC-1; assay: as above; assay type: cell-based; conditions: FDA209P, 37° C., 20 hours
Protocol: as §1, §2

[9] = system: Klebsiella pneumoniae PCI 602; assay: as above; assay type: cell-based; conditions: PCI602, 37° C., 20 hours
Protocol: as §1, §2

[10] = system: Bacillus subtilis ATCC 6633; assay: as above; assay type: cell-based; conditions: ATCC6633, 37° C., 20 hours
Protocol: as §1, §2

[11] = system: Streptococcus faecalis AHU 1085; assay: as above; assay type: cell-based; conditions: Enterococcus faecalis, AHU1085, 37° C., 20 hours
Protocol: as §1, §2

[12] = system: Proteus vulgaris ATCC 13315; assay: as above; assay type: cell-based; conditions: ATCC13315, 37° C., 20 hours
Protocol: as §1, §2

[13] = system: Salmonella enteritidis G14; assay: as above; assay type: cell-based; conditions: Salmonella enterica, 37° C., 20 hours
Protocol: as §1, §2

Row | SMILES | concentration at 0.5 h [1] [ng/mL] | concentration at 1 h [1] [ng/mL] | concentration at 2 h [1] [ng/mL] | concentration at 4 h [1] [ng/mL] | MIC [3] [µg/mL] | MIC [4] [µg/mL] | MIC [5] [µg/mL] | MIC [6] [µg/mL] | MIC [7] [µg/mL] | MIC [8] [µg/mL] | MIC [9] [µg/mL] | MIC [10] [µg/mL] | MIC [11] [µg/mL] | MIC [12] [µg/mL] | MIC [13] [µg/mL] | ED50 [2] [mg/kg]
1 | CC1CN(c2c(F)cc3c(=O)c(C(=O)O)cn4c3c2C=CC4C)CCN1 (centres unmarked) [Compound 29, 9-Fluoro-5-methyl-8-(3-methyl-1-piperazinyl) -1-oxo-1H, 5H-benzo[ij]quinolizine-2-carboxylic acid] | 15600 | 14400 | 9800 | 4200 | 0.1 (≈ 0.28 µM) | 0.1 (≈ 0.28 µM) | 0.2 (≈ 0.56 µM) | 1.56 (≈ 4.37 µM) | 0.78 (≈ 2.18 µM) | 0.2 (≈ 0.56 µM) | 0.1 (≈ 0.28 µM) | 0.2 (≈ 0.56 µM) | 0.78 (≈ 2.18 µM) | 0.1 (≈ 0.28 µM) | 0.78 (≈ 2.18 µM) | 0.69
2 | CC1CN(c2c(F)cc3c(=O)c(C(=O)O)cn4c3c2C(=O)CC4C)CCN1C.Cl.O (centres unmarked) [Compound 38, 9-fluoro-5-methyl-8-(3,4-dimethyl-1-piperazinyl)-6,7-dihydro-1,7-dioxo-1H,5H-benzo[ij]quinolizine-2-carboxylic acid hydrochloride monohydrate] | 26700 | 24100 | 13500 | 9000 | 0.2 | 0.1 | 0.2 | 1.56 | 1.56 | 0.78 | 0.1 | 0.1 | 0.78 | 0.1 | 0.78 | 
3 | CC1CCc2c(N3CCN(C)CC3)c(F)cc3c(=O)c(C(=O)O)cn1c23 (centres unmarked) [OPC-7241, 9-fluoro-6,7-dihydro-5-methyl-8-(4-methyl-1-piperazinyl)-1-oxo-1H, 5H-benzo[ij]quinolizine-2-carboxylic acid, reference compound] | 9300 | 7800 | 4100 | 2200 | 0.39 (≈ 1.09 µM) | 0.2 (≈ 0.556 µM) | 0.78 (≈ 2.17 µM) | 3.13 (≈ 8.71 µM) | 1.56 (≈ 4.34 µM) | 0.39 (≈ 1.09 µM) | 0.1 (≈ 0.278 µM) | 0.1 (≈ 0.278 µM) | 0.78 (≈ 2.17 µM) | 0.1 (≈ 0.278 µM) | 0.78 (≈ 2.17 µM) | 1.7
4 | CC1CN(c2c(Cl)cc3c(=O)c(C(=O)O)cn4c3c2C=CC4C)CCN1 (centres unmarked) [Compound 31, 9-Chloro-5-methyl-8-(3-methyl-1-piperazinyl) -1-oxo-1H, 5H-benzo[ij]quinolizine-2-carboxylic acid] | 13800 | 12700 | 8400 | 5000 | 0.1 (≈ 0.267 µM) | 0.2 (≈ 0.535 µM) | 0.2 (≈ 0.535 µM) | 1.56 (≈ 4.17 µM) | 1.56 (≈ 4.17 µM) | 0.2 (≈ 0.535 µM) | 0.1 (≈ 0.267 µM) | 0.2 (≈ 0.535 µM) | 0.78 (≈ 2.09 µM) | 0.1 (≈ 0.267 µM) | 1.56 (≈ 4.17 µM) | 
5 | CC1C=Cc2c(N3CCN(C)CC3)c(F)cc3c(=O)c(C(=O)O)cn1c23.Cl (centres unmarked) [Compound 37, 9-Fluoro-5-methyl-8-(4-methyl-1-piperazinyl) -1-oxo-1H, 5H-benzo[ij]quinolizine-2-carboxylic acid hydrochloride] |  |  |  |  | 0.39 | 0.2 | 0.78 | 0.78 | 1.56 | 0.39 | 0.1 | 0.1 | 1.56 | 0.1 | 0.78 | 

Further compounds by falling MIC [3], results first:

Row | concentration at 0.5 h [1] [ng/mL] | concentration at 1 h [1] [ng/mL] | concentration at 2 h [1] [ng/mL] | concentration at 4 h [1] [ng/mL] | MIC [3] [µg/mL] | MIC [4] [µg/mL] | MIC [5] [µg/mL] | MIC [6] [µg/mL] | MIC [7] [µg/mL] | MIC [8] [µg/mL] | MIC [9] [µg/mL] | MIC [10] [µg/mL] | MIC [11] [µg/mL] | MIC [12] [µg/mL] | MIC [13] [µg/mL] | SMILES | ED50 [2] [mg/kg]
6 |  |  |  |  | 0.39 (≈ 1.09 µM) | 0.2 (≈ 0.56 µM) | 0.78 (≈ 2.18 µM) | 0.78 (≈ 2.18 µM) | 1.56 (≈ 4.37 µM) | 0.39 (≈ 1.09 µM) | 0.1 (≈ 0.28 µM) | 0.1 (≈ 0.28 µM) | 1.56 (≈ 4.37 µM) | 0.1 (≈ 0.28 µM) | 0.78 (≈ 2.18 µM) | CC1C=Cc2c(N3CCN(C)CC3)c(F)cc3c(=O)c(C(=O)O)cn1c23 (centres unmarked) [Compound 19, 9-Fluoro-5-methyl-8-(4-methyl-1-piperazinyl) -1-oxo-1H, 5H-benzo[ij]quinolizine-2-carboxylic acid] | 
7 | 24500 | 22000 | 11800 | 8500 | 0.2 | 0.1 | 0.2 | 0.78 | 1.56 | 0.39 | 0.1 | 0.1 | 0.78 | 0.2 | 0.78 | CC1CC(=O)c2c(N3CCN(C)CC3)c(F)cc3c(=O)c(C(=O)O)cn1c23.Cl.O (centres unmarked) [Compound 35, 9-Fluoro-5-methyl-8-(4-methyl-1-piperazinyl) -6,7-dihydro-1,7-dioxo-1H, 5H-benzo[ij]quinolizine-2-carboxylic acid hydrochloride monohydrate] | 
8 | 20200 | 15900 | 7700 | 4500 | 0.2 (≈ 0.495 µM) | 0.1 (≈ 0.248 µM) | 0.2 (≈ 0.495 µM) | 0.78 (≈ 1.93 µM) | 3.13 (≈ 7.75 µM) | 0.39 (≈ 0.966 µM) | 0.1 (≈ 0.248 µM) | 0.2 (≈ 0.495 µM) | 1.56 (≈ 3.86 µM) | 0.2 (≈ 0.495 µM) | 0.78 (≈ 1.93 µM) | CCN1CCN(c2c(Cl)cc3c(=O)c(C(=O)O)cn4c3c2C(=O)CC4C)CC1 (centres unmarked) [Compound 9, 9-Chloro-5-methyl-8-(4-ethyl-1-piperazinyl) -6,7-dihydro-1,7-dioxo-1H, 5H-benzo[ij]quinolizine-2-carboxylic acid] | 
9 | 16400 | 13600 | 8100 | 4800 | 0.2 (≈ 0.536 µM) | 0.1 (≈ 0.268 µM) | 0.2 (≈ 0.536 µM) | 0.78 (≈ 2.09 µM) | 1.56 (≈ 4.18 µM) | 0.2 (≈ 0.536 µM) | 0.1 (≈ 0.268 µM) | 0.2 (≈ 0.536 µM) | 0.78 (≈ 2.09 µM) | 0.2 (≈ 0.536 µM) | 0.78 (≈ 2.09 µM) | CC1CN(c2c(F)cc3c(=O)c(C(=O)O)cn4c3c2C(=O)CC4C)CCN1 (centres unmarked) [Compound 16, 9-fluoro-5-methyl-8-(3-methyl-1-piperazinyl)-6,7-dihydro-1,7-dioxo-1H, 5H-benzo[ij]quinolizine-2-carboxylic acid] | 0.71
10 | 20800 | 15800 | 7200 | 5300 | 0.2 (≈ 0.516 µM) | 0.1 (≈ 0.258 µM) | 0.2 (≈ 0.516 µM) | 1.56 (≈ 4.03 µM) | 3.13 (≈ 8.08 µM) | 0.78 (≈ 2.01 µM) | 0.1 (≈ 0.258 µM) | 0.1 (≈ 0.258 µM) | 3.13 (≈ 8.08 µM) | 0.39 (≈ 1.01 µM) | 0.78 (≈ 2.01 µM) | CC1CN(c2c(F)cc3c(=O)c(C(=O)O)cn4c3c2C(=O)CC4C)CC(C)N1 (centres unmarked) [Compound 11, 9-Fluoro-5-methyl-8-(3,5-dimethyl-1-piperazinyl) -6,7-dihydro-1,7-dioxo-1H, 5H-benzo[ij]quinolizine-2-carboxylic acid] | 
11 | 24200 | 22400 | 12600 | 8400 | 0.2 (≈ 0.536 µM) | 0.1 (≈ 0.268 µM) | 0.2 (≈ 0.536 µM) | 0.78 (≈ 2.09 µM) | 1.56 (≈ 4.18 µM) | 0.39 (≈ 1.04 µM) | 0.1 (≈ 0.268 µM) | 0.1 (≈ 0.268 µM) | 0.78 (≈ 2.09 µM) | 0.2 (≈ 0.536 µM) | 0.78 (≈ 2.09 µM) | CC1CC(=O)c2c(N3CCN(C)CC3)c(F)cc3c(=O)c(C(=O)O)cn1c23 (centres unmarked) [Compound 3, 9-Fluoro-5-methyl-8-(4-methyl-1-piperazinyl)-6,7-dihydro-1,7-dioxo-1H, 5H-benzo[ij]quinolizine-2-carboxylic acid] | 0.52
